Target: HDAC (Homo sapiens, UniProt Q13547)
Experiment: Inhibition of the enzyme HDAC (Examples 12 and 13)
Format: biochemical
Conditions: Example 12; read-out: ID50 as inhibitor of HDAC

Sequence of HDAC (Q13547 whole entry): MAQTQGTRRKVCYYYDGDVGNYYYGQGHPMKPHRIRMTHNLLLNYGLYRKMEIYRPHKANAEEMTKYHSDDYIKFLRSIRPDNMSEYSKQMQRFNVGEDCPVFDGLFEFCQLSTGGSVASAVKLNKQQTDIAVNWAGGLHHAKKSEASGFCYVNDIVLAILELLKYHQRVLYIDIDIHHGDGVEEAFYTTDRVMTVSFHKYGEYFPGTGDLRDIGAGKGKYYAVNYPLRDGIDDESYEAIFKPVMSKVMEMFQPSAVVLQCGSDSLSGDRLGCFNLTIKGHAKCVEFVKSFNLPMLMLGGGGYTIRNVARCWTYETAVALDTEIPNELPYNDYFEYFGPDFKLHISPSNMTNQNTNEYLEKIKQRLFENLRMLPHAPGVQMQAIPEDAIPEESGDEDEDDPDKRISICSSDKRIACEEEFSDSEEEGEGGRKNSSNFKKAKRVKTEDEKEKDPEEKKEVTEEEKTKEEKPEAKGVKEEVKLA

IC50 [nM]	Structure (SMILES)
50	O=C(CCCCCC(C(=O)Nc1cccc2cccnc12)C(=O)Nc1cccc2cccnc12)NO [Compound 7]

Target: affinity purified human epitope-tagged (Flag) HDAC1 (Homo sapiens, UniProt Q13547)
Experiment: Histone Deacetylase (HDAC) enzymatic activity, [3H]acetyl-labeled histone substrate
Format: biochemical
Set-up: Flag
Conditions: FIGS. 2, 5, 7; read-out: ID50 of HDAC1 enzymatic activity
Experimental: (§1) Substrate ([^3H]acetyl-labeled murine erythroleukemia cell-derived histone) was added and the samples were incubated for 20 min at 37° C. in a total volume of 30 μl. The reaction were then stopped and released acetate was extracted and the amount of radioactivity released determined by scintillation counting.
as §1, with “Substrate ([^3H]acetyl-labelled” for “Substrate ([^3H]acetyl-labeled”, “The reactions” for “The reaction”, “and relaesed” for “and released”
as §1, with “([^3H]acetyl-labelled” for “([^3H]acetyl-labeled”, “reactions” for “reaction”
The effect was assayed by incubating the enzyme preparation in the absence of substrate on ice for 20 minutes with the indicated amounts of compound. Substrate([^3H]acetyl-labeled murine erythroleukemia cell-derived histones) was added and the samples were incubated for 20 minutes at 37° C. in a total volume of 30 μl. The reactions were then stopped and released acetate was extracted and the amount of radioactivity released determined by scintillation counting.

Sequence of affinity purified human epitope-tagged (Flag) HDAC1 (Q13547 whole entry): as above

IC50 [nM]	Structure (SMILES)
1	O=C(CCCCC[C@H](NC(=O)c1ccccc1)C(=O)Nc1ccccc1)NO [Compound 1, N-Benzoyl-(L)-α-aminosuberoylanilide-ω-hydroxamic acid]
100	O=C(CCCCC[C@H](NC(=O)OCc1ccccc1)C(=O)Nc1ccccc1)NO [Compound 3, N-benzyloxycarbonyl-(L)-α-aminosuberateanilide-ω-hydroxamic acid]

Same assay, conditions: Table 2; unit column μm; read-out: HDAC inh ID50

IC50 [nM]	Structure (SMILES)
> 100000	O=C(O)CCCCC[C@@H](NC(=O)c1ccccc1)C(=O)Nc1ccccc1 [Compound 656]
> 100000	O=C(O)CCCCC[C@@H](NC(=O)c1cccnc1)C(=O)Nc1ccccc1 [Compound 657]

Same assay, conditions: Table 2; unit nM; read-out: HDAC inh ID50

IC50 [nM]	Structure (SMILES)
50	O=C(CCCCC[C@H](NC(=O)c1cccnc1)C(=O)Nc1ccccc1)NO (stereo in doubt) [Compound 2, N-Nicotinoyl-(L)-α-aminosuberoylanilide-ω-hydroxamic acid]
100	O=C(CCCCCC(NC(=O)OCc1ccccc1)C(=O)Nc1ccccc1)NO (stereo not drawn) [Compound 3, N-benzyloxycarbonyl-(L)-α-aminosuberateanilide-ω-hydroxamic acid]
20	O=C(CCCCC[C@@H](NC(=O)c1ccccc1)C(=O)Nc1cccc2cccnc12)NO [Compound 661]
100	O=C(CCCCC[C@@H](NC(=O)c1ccccc1)NC(=O)C1CCCCC1)NO [Compound 663]
50	O=C(CCCCC[C@H](NC(=O)c1cnc2ccccc2c1)C(=O)Nc1ccccc1)NO [Compound 664]
50	O=C(CCCCC[C@H](NC(=O)c1cccs1)C(=O)Nc1ccccc1)NO [Compound 665]
100	O=C(CCCCCC(C(=O)Nc1ccccc1)C(=O)Nc1ccccc1)NO [Compound 666]
50	O=C(CCCCCC(C(=O)Nc1cccc2cccnc12)C(=O)Nc1cccc2cccnc12)NO [Compound 667]
100	O=C(CCCCCCC(=O)Nc1cccc2cccnc12)NO [Compound 668]
200	CN(C)c1cccc2cc(S(=O)(=O)NCCCCCC(=O)NO)ccc12 [Compound 671]
5	O=C(CCCCCC(C(=O)Nc1cnc2ccccc2c1)C(=O)Nc1cnc2ccccc2c1)NO [Compound 677]
200	O=C(CCCCCC(C(=O)Nc1cccc2cccnc12)(C(=O)Nc1cccc2cccnc12)c1ccccc1)NO [Compound 681]
150	O=C(CCCCCC(C(=O)Nc1ccccc1)(C(=O)Nc1ccccc1)c1ccccc1)NO [Compound 682]
150	O=C(CCCCCC(CCCCCC(=O)NO)(C(=O)Nc1cccc2cccnc12)C(=O)Nc1cccc2cccnc12)NO [Compound 685]
200	O=C(/C=C/c1cccc(CC(=O)Nc2ccccc2)c1)NO [Compound 689]

Test system: Murine erythroleukemia (MEL) cells
Experiment: MEL cell differentiation assay (benzidine assay; cell growth by Coulter Counter)
Format: cell-based
Conditions: FIGS. 1, 3, 4, 6; 5-day culture
Experimental: (§2) The MEL cell differentiation assay was used to assess the ability of Compound 1 to induce terminal differentiation. MEL cells (logarithmically dividing) were cultured with the indicated concentrations of Compound 1. Following a 5-day culture period, cell growth was determined using a Coulter Counter and differentiation was determined microscopically using the benzidine assay to determine hemoglobin protein accumulation on a per cell basis.
as §2, with “2” for “1”, “2.” for “1.”, “period” for “period, cell growth was determined using a Coulter Counter and”
as §2, with “3” for “1”, “3.” for “1.”, “period” for “period, cell growth was determined using a Coulter Counter and”, “microsdopically” for “microscopically”
as §2, with “4” for “1”, “4.” for “1.”, “period” for “period, cell growth was determined using a Coulter Counter and”
All the compounds which were prepared were tested. […] Table 2 is compiled from experiments similar to the experiments described in Examples 7-10 above.

Structure (SMILES)	concentration able to induce MEL cell differentiation [nM]
O=C(CCCCC[C@H](NC(=O)c1ccccc1)C(=O)Nc1ccccc1)NO [Compound 1, N-Benzoyl-(L)-α-aminosuberoylanilide-ω-hydroxamic acid]	200
O=C(CCCCC[C@H](NC(=O)OCc1ccccc1)C(=O)Nc1ccccc1)NO [Compound 3, N-benzyloxycarbonyl-(L)-α-aminosuberateanilide-ω-hydroxamic acid]	400

Same assay, conditions: Table 1; benzidine-positive cells at Opt. concentration

Structure (SMILES)	MEL Differentiation % B+ [%]
O=C(CCCCC[C@H](NC(=O)c1ccccc1)C(=O)Nc1ccccc1)NO [Compound 1, N-Benzoyl-(L)-α-aminosuberoylanilide-ω-hydroxamic acid]	44
O=C(CCCCC[C@H](NC(=O)OCc1ccccc1)C(=O)Nc1ccccc1)NO [Compound 3, N-benzyloxycarbonyl-(L)-α-aminosuberateanilide-ω-hydroxamic acid]	16

Same assay, conditions: Table 1; optimal concentration, 5-day culture

Structure (SMILES)	MEL Differentiation Opt. [nM]
O=C(CCCCC[C@H](NC(=O)c1ccccc1)C(=O)Nc1ccccc1)NO [Compound 1, N-Benzoyl-(L)-α-aminosuberoylanilide-ω-hydroxamic acid]	200
O=C(CCCCC[C@H](NC(=O)OCc1ccccc1)C(=O)Nc1ccccc1)NO [Compound 3, N-benzyloxycarbonyl-(L)-α-aminosuberateanilide-ω-hydroxamic acid]	400

Same assay, conditions: Table 2

Structure (SMILES)	MEL Diff % B+ [%]
O=C(CCCCC[C@H](NC(=O)c1cccnc1)C(=O)Nc1ccccc1)NO (stereo in doubt) [Compound 2, N-Nicotinoyl-(L)-α-aminosuberoylanilide-ω-hydroxamic acid]	27
O=C(CCCCC[C@H](NC(=O)c1ccccc1)C(=O)Nc1ccccc1)NO [Compound 1, N-Benzoyl-(L)-α-aminosuberoylanilide-ω-hydroxamic acid]	44
O=C(CCCCCC(NC(=O)OCc1ccccc1)C(=O)Nc1ccccc1)NO (stereo not drawn) [Compound 3, N-benzyloxycarbonyl-(L)-α-aminosuberateanilide-ω-hydroxamic acid]	16
O=C(O)CCCCC[C@@H](NC(=O)c1ccccc1)C(=O)Nc1ccccc1 [Compound 656]	0
O=C(O)CCCCC[C@@H](NC(=O)c1cccnc1)C(=O)Nc1ccccc1 [Compound 657]	0
O=C(CCCCC[C@@H](NC(=O)c1ccccc1)C(=O)Nc1cccc2cccnc12)NO [Compound 661]	7
O=C(CCCCC[C@@H](NC(=O)c1ccccc1)NC(=O)C1CCCCC1)NO [Compound 663]	43
O=C(CCCCC[C@H](NC(=O)c1cnc2ccccc2c1)C(=O)Nc1ccccc1)NO [Compound 664]	33
O=C(CCCCC[C@H](NC(=O)c1cccs1)C(=O)Nc1ccccc1)NO [Compound 665]	24
O=C(CCCCCC(C(=O)Nc1ccccc1)C(=O)Nc1ccccc1)NO [Compound 666]	31
O=C(CCCCCC(C(=O)Nc1cccc2cccnc12)C(=O)Nc1cccc2cccnc12)NO [Compound 667]	27
O=C(CCCCCCC(=O)Nc1cccc2cccnc12)NO [Compound 668]	11
CN(C)c1cccc2cc(S(=O)(=O)NCCCCCC(=O)NO)ccc12 [Compound 671]	35
O=C(CCCCCC(C(=O)Nc1cnc2ccccc2c1)C(=O)Nc1cnc2ccccc2c1)NO [Compound 677]	23
O=C(CCCCCC(C(=O)Nc1cccc2cccnc12)(C(=O)Nc1cccc2cccnc12)c1ccccc1)NO [Compound 681]	3
O=C(CCCCCC(C(=O)Nc1ccccc1)(C(=O)Nc1ccccc1)c1ccccc1)NO [Compound 682]	8
O=C(CCCCCC(CCCCCC(=O)NO)(C(=O)Nc1cccc2cccnc12)C(=O)Nc1cccc2cccnc12)NO [Compound 685]	20
O=C(/C=C/c1cccc(CC(=O)Nc2ccccc2)c1)NO [Compound 689]	48

Same assay, conditions: Table 2; cell growth

Structure (SMILES)	MEL Diff Cells/ml × 10^−5 [Cells/ml × 10^−5]
O=C(CCCCC[C@H](NC(=O)c1ccccc1)C(=O)Nc1ccccc1)NO [Compound 1, N-Benzoyl-(L)-α-aminosuberoylanilide-ω-hydroxamic acid]	9
O=C(CCCCCC(NC(=O)OCc1ccccc1)C(=O)Nc1ccccc1)NO (stereo not drawn) [Compound 3, N-benzyloxycarbonyl-(L)-α-aminosuberateanilide-ω-hydroxamic acid]	3.3
O=C(CCCCC[C@@H](NC(=O)c1ccccc1)NC(=O)C1CCCCC1)NO [Compound 663]	7
O=C(CCCCC[C@H](NC(=O)c1cnc2ccccc2c1)C(=O)Nc1ccccc1)NO [Compound 664]	22
O=C(CCCCC[C@H](NC(=O)c1cccs1)C(=O)Nc1ccccc1)NO [Compound 665]	30
O=C(CCCCCC(C(=O)Nc1ccccc1)C(=O)Nc1ccccc1)NO [Compound 666]	28
O=C(CCCCCC(C(=O)Nc1cccc2cccnc12)C(=O)Nc1cccc2cccnc12)NO [Compound 667]	2
O=C(CCCCCCC(=O)Nc1cccc2cccnc12)NO [Compound 668]	4.7
CN(C)c1cccc2cc(S(=O)(=O)NCCCCCC(=O)NO)ccc12 [Compound 671]	12.5
O=C(CCCCCC(C(=O)Nc1cnc2ccccc2c1)C(=O)Nc1cnc2ccccc2c1)NO [Compound 677]	4.5
O=C(CCCCCC(C(=O)Nc1cccc2cccnc12)(C(=O)Nc1cccc2cccnc12)c1ccccc1)NO [Compound 681]	2.5
O=C(CCCCCC(C(=O)Nc1ccccc1)(C(=O)Nc1ccccc1)c1ccccc1)NO [Compound 682]	1.1
O=C(CCCCCC(CCCCCC(=O)NO)(C(=O)Nc1cccc2cccnc12)C(=O)Nc1cccc2cccnc12)NO [Compound 685]	1.0

Reference: patent publication US20070010669A1, “Novel class of cytodifferentiating agents and histone deacetylase inhibitors, and methods of use thereof” (priority 1999, published 2007)
